# Columns and labels:
# Assay in all cases: KINOMEscan competition binding
# Details in all cases: compound 10.0 µM
# ABL1 (human) = ABL1 (human) (UniProt P00519)
# ABL2 (human) = ABL2 (human) (UniProt P42684)
# ADCK4 (human) = ADCK4 (human) (UniProt Q96D53)
# AKT2 (human) = AKT2 (human) (UniProt P31751)
# CAMK1 (human) = CAMK1 (human) (UniProt Q14012)
# CAMK1D (human) = CAMK1D (human) (UniProt Q8IU85)
# CAMK2A (human) = CAMK2A (human) (UniProt Q9UQM7)
# CDK11B (human) = CDK11B (human) (UniProt P21127)
# CDK8 (human) = CDK8 (human) (UniProt P49336)
# CHEK2 (human) = CHEK2 (human) (UniProt O96017)
# CSK (human) = CSK (human) (UniProt P41240)
# CSNK1A1L (human) = CSNK1A1L (human) (UniProt Q8N752)
# DCLK1 (human) = DCLK1 (human) (UniProt O15075)
# EGFR (human) = EGFR (human) (UniProt P00533)
# [1] = test system: EGFR (human), P00533 [L861Q]
# [2] = test system: EGFR (human), P00533 [P753S; 747-752 del]
# EIF2AK2 (human) = EIF2AK2 (human) (UniProt P19525)
# EPHA5 (human) = EPHA5 (human) (UniProt P54756)
# EPHA6 (human) = EPHA6 (human) (UniProt Q9UF33)
# ERBB2 (human) = ERBB2 (human) (UniProt P04626)
# FYN (human) = FYN (human) (UniProt P06241)
# [3] = target: JAK1 JH1 catalytic (human) (UniProt P23458)
# LATS1 (human) = LATS1 (human) (UniProt O95835)
# LTK (human) = LTK (human) (UniProt P29376)
# MAP4K5 (human) = MAP4K5 (human) (UniProt Q9Y4K4)
# MAPK6 (human) = MAPK6 (human) (UniProt Q16659)
# MARK1 (human) = MARK1 (human) (UniProt Q9P0L2)
# MST1R (human) = MST1R (human) (UniProt Q04912)
# NEK7 (human) = NEK7 (human) (UniProt Q8TDX7)
# PAK3 (human) = PAK3 (human) (UniProt O75914)
# PAK4 (human) = PAK4 (human) (UniProt O96013)
# PKN1 (human) = PKN1 (human) (UniProt Q16512)
# PLK1 (human) = PLK1 (human) (UniProt P53350)
# PTK2B (human) = PTK2B (human) (UniProt Q14289)
# RPS6KA1 KD1 (human) = RPS6KA1 KD1 (human) (UniProt Q15418)
# RPS6KA4 KD1 (human) = RPS6KA4 KD1 (human) (UniProt O75676)
# SRPK1 (human) = SRPK1 (human) (UniProt Q96SB4)
# STK25 (human) = STK25 (human) (UniProt O00506)
# TGFBR1 (human) = TGFBR1 (human) (UniProt P36897)
# TNNI3K (human) = TNNI3K (human) (UniProt Q59H18)
# WEE1 (human) = WEE1 (human) (UniProt P30291)
# YES1 (human) = YES1 (human) (UniProt P07947)
# Chain of WEE1 (human) (P30291 whole entry, looked up): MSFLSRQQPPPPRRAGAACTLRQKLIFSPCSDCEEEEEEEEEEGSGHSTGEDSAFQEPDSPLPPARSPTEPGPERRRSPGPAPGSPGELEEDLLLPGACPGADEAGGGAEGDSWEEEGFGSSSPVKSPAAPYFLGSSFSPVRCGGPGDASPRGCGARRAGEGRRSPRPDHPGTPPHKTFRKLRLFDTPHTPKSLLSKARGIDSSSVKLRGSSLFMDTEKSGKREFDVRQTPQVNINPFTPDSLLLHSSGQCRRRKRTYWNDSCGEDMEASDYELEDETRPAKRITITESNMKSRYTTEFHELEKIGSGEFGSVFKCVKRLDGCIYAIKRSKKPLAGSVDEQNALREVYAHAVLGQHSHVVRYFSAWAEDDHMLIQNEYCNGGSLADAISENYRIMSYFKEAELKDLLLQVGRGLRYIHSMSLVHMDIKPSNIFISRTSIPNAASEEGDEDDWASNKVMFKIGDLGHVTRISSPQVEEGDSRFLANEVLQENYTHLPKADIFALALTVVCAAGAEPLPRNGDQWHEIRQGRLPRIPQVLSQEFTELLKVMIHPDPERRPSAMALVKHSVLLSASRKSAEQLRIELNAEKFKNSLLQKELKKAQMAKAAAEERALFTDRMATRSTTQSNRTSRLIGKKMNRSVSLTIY
# Chain of LTK (human) (P29376 whole entry, looked up): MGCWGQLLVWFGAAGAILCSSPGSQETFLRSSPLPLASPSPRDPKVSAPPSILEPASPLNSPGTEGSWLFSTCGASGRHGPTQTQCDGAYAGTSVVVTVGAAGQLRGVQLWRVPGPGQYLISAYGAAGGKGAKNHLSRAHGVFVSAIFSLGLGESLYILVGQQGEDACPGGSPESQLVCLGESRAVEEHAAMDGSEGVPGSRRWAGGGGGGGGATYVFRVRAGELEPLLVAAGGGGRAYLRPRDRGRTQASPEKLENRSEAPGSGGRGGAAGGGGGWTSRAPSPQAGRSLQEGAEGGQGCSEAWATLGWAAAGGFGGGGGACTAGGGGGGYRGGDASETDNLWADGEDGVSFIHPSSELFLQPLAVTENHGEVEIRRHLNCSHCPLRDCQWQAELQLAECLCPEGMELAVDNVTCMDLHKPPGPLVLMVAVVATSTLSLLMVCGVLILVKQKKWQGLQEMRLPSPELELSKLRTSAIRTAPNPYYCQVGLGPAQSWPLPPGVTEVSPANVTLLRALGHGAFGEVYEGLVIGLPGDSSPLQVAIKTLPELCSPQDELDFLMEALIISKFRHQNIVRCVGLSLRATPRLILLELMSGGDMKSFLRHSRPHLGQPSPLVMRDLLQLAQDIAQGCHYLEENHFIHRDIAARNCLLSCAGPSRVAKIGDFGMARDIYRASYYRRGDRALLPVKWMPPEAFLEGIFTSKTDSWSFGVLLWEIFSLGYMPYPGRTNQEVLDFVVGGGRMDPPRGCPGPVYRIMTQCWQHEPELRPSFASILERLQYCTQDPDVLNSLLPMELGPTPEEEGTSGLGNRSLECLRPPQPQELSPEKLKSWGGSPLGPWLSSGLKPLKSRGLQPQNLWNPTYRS
# Chain of MARK1 (human) (Q9P0L2 whole entry, looked up): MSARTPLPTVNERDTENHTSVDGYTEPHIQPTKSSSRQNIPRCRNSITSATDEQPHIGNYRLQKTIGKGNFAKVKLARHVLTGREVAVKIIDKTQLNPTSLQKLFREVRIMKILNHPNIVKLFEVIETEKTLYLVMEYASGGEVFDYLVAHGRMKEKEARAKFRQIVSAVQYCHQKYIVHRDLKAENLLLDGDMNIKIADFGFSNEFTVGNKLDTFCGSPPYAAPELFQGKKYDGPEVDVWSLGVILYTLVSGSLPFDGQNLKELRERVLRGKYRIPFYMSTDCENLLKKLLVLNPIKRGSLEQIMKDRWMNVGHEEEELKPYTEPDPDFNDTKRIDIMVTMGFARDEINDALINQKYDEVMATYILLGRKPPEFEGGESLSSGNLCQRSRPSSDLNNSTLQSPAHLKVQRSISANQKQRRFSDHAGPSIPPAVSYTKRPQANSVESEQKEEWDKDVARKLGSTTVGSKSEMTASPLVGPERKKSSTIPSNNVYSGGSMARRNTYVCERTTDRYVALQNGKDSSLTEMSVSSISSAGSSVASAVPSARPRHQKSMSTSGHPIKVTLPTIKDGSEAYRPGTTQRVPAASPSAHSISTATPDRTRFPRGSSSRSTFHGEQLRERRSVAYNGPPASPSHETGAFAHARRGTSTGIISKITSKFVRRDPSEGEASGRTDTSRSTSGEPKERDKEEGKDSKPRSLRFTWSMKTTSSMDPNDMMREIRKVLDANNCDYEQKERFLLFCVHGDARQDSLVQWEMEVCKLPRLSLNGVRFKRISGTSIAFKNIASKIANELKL
# Chain of ADCK4 (human) (Q96D53 whole entry, looked up): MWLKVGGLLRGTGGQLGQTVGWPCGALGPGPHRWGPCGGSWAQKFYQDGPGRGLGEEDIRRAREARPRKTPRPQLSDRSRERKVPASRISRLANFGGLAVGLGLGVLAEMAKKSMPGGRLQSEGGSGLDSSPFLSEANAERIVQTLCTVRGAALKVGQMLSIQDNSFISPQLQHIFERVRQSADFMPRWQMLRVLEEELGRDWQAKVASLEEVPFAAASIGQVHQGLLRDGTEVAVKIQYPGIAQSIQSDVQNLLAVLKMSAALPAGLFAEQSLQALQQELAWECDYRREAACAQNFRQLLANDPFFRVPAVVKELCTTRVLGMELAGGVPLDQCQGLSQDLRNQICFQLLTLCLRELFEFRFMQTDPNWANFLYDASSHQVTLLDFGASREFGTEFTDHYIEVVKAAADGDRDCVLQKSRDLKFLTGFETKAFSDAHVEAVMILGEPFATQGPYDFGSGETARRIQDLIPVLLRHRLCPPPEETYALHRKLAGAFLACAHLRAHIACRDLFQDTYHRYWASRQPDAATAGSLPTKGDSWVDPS
# Chain of DCLK1 (human) (O15075 whole entry, looked up): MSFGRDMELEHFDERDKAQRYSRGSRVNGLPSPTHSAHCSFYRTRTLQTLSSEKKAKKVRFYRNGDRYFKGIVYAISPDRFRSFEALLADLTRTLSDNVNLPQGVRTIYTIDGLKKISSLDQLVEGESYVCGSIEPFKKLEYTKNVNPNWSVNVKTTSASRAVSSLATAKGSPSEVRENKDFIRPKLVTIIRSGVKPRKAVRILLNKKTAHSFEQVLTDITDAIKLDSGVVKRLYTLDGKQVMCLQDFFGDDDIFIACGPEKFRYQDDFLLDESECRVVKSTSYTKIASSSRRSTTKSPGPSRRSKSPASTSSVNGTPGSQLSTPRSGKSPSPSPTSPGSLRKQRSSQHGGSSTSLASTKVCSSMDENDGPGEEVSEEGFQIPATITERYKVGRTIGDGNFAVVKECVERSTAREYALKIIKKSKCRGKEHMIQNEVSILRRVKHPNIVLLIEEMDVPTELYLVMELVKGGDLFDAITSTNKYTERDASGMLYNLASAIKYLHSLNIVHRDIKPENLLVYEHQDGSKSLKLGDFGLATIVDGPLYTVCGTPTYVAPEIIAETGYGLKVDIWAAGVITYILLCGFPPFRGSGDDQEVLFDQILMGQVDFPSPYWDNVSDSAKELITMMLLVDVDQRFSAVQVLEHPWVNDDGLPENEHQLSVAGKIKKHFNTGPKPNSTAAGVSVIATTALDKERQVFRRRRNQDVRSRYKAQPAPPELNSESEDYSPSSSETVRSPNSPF
# Chain of FYN (human) (P06241 whole entry, looked up): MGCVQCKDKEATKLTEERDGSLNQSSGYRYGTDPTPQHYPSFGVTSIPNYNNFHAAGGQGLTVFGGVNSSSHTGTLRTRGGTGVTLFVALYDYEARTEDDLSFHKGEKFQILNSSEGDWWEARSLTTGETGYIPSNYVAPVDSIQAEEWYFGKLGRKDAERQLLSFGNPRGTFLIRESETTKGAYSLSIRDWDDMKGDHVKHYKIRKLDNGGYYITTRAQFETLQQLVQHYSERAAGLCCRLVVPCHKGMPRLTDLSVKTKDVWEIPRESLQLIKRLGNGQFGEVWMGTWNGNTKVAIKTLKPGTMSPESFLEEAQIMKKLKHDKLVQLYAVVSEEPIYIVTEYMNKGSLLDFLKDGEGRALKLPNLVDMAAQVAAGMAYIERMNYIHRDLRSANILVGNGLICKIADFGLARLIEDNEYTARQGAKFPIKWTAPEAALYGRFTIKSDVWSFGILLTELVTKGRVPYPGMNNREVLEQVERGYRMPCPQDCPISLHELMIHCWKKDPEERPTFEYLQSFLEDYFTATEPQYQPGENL
# Chain of TNNI3K (human) (Q59H18 whole entry, looked up): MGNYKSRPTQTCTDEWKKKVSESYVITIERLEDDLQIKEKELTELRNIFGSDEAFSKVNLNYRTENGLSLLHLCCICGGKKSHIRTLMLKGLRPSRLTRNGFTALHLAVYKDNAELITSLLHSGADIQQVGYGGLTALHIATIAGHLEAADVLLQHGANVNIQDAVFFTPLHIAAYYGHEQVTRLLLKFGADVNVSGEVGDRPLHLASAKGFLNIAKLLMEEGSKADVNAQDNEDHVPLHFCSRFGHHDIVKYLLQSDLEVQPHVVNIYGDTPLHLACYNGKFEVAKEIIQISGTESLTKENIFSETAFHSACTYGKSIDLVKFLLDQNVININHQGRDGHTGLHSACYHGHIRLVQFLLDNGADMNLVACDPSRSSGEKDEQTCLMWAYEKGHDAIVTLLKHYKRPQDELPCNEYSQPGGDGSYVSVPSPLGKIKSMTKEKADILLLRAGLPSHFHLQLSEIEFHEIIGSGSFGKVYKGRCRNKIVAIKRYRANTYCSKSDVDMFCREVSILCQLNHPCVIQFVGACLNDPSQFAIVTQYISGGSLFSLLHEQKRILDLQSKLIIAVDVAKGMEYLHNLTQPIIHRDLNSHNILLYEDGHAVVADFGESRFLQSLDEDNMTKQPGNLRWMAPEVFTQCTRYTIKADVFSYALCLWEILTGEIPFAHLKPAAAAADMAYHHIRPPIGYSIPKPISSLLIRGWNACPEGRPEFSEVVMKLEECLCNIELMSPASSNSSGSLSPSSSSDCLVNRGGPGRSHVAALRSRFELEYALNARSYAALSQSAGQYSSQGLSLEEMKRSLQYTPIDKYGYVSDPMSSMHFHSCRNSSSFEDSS
structure (smiles),measurement,setting,value
CN1C(=O)c2ccccc2N(C)c2nc(NS(=O)(=O)c3ccc(N)cc3)ncc21,"kinase still bound, per cent of control",ABL1 (human),99%
same,"kinase still bound, per cent of control",ABL2 (human),100%
same,"kinase still bound, per cent of control",ADCK4 (human),91%
same,"kinase still bound, per cent of control",AKT2 (human),100%
same,"kinase still bound, per cent of control",CAMK1 (human),100%
same,"kinase still bound, per cent of control",CAMK1D (human),100%
same,"kinase still bound, per cent of control",CAMK2A (human),100%
same,"kinase still bound, per cent of control",CDK11B (human),96%
same,"kinase still bound, per cent of control",CDK8 (human),100%
same,"kinase still bound, per cent of control",CHEK2 (human),100%
same,"kinase still bound, per cent of control",CSK (human),100%
same,"kinase still bound, per cent of control",CSNK1A1L (human),100%
same,"kinase still bound, per cent of control",DCLK1 (human),39%
same,"kinase still bound, per cent of control",EGFR (human),100%
same,"kinase still bound, per cent of control",[1],84%
same,"kinase still bound, per cent of control",[2],100%
same,"kinase still bound, per cent of control",EIF2AK2 (human),91%
same,"kinase still bound, per cent of control",EPHA5 (human),100%
same,"kinase still bound, per cent of control",EPHA6 (human),100%
same,"kinase still bound, per cent of control",ERBB2 (human),100%
same,"kinase still bound, per cent of control",FYN (human),100%
same,"kinase still bound, per cent of control",[3],100%
same,"kinase still bound, per cent of control",LATS1 (human),74%
same,"kinase still bound, per cent of control",LTK (human),82%
same,"kinase still bound, per cent of control",MAP4K5 (human),100%
same,"kinase still bound, per cent of control",MAPK6 (human),78%
same,"kinase still bound, per cent of control",MARK1 (human),100%
same,"kinase still bound, per cent of control",MST1R (human),100%
same,"kinase still bound, per cent of control",NEK7 (human),89%
same,"kinase still bound, per cent of control",PAK3 (human),76%
same,"kinase still bound, per cent of control",PAK4 (human),100%
same,"kinase still bound, per cent of control",PKN1 (human),85%
same,"kinase still bound, per cent of control",PLK1 (human),100%
same,"kinase still bound, per cent of control",PTK2B (human),100%
same,"kinase still bound, per cent of control",RPS6KA1 KD1 (human),100%
same,"kinase still bound, per cent of control",RPS6KA4 KD1 (human),100%
same,"kinase still bound, per cent of control",SRPK1 (human),100%
same,"kinase still bound, per cent of control",STK25 (human),100%
same,"kinase still bound, per cent of control",TGFBR1 (human),100%
same,"kinase still bound, per cent of control",TNNI3K (human),100%
same,"kinase still bound, per cent of control",WEE1 (human),99%
same,"kinase still bound, per cent of control",YES1 (human),100%

# — the kinase profiling compilation of Christmann-Franck et al. (2016)
